Measurements taken from PubChem BioAssay AID2060898 (Molecular Pharmacology Branch, DTP, NCI, 2025).

Test system: 616215-338-R-J1-PDC complex spheroid viability
Experiment: Anticancer human tumor 616215-338-R-J1-PDC patient-derived colon adenocarcinoma cell line growth inhibition [RAS]
Settings: for IC50: curve of first compound; for viability, T/C: stronger effect = lower value
Description: RAS pathway inhibitors in Combinations in Complex Spheroids
A high-throughput screen of multi-cell type tumor spheroids was designed to identify active combinations of RAS pathway inhibitors and targeted small molecules. Complex spheroids include a stromal component modeled by human endothelial cells (HUVEC) and fibroblasts modeled by human mesenchymal stem cells (MSCs). The concentration ranges selected for each drug and investigational agent were based upon clinically achievable concentrations if the clinical Cmax of the agent was known.
Compounds. The drugs and investigational agents: abemaciclib (NSC768073), cobimetinib (NSC768068), divarasib (GDC6063, NSC841802), docetaxel (NSC628503), GDC-1971 (RLY-1971, NSC841576), gemcitabine (NSC613327), inavolisib (NSC800729), ipatasertib (NSC767898), KB-0742 (NSC834161), MRTX-1133 (NSC836407), osimertinib (NSC779217), RMC-4630 (NSC839698), RMC-6236 (NSC851965), RMC-6291 (NSC852671), Ro-3306 (NSC812927), sapanisertib (NSC764658), SN-38 (NSC673596), staurosporine (NSC755774), SY5609 (NSC837396), and tovorafenib (DAY101, NSC766906), were obtained from the National Cancer Institute (NCI) Developmental Therapeutics Program Chemical Repository. The FDA-approved anticancer drug set is available from the NCI Developmental Therapeutics Program. […] The stock solutions were prepared in dimethyl sulfoxide (DMSO, Sigma-Aldrich, St. Louis, MO, cat. D2650) at 800-fold the tested concentration and stored at -70 degrees C prior to their use. All drugs and investigational agents were tested over a range starting from a high concentration at or near the clinical Cmax and decreasing in half-log increments. If the clinical Cmax for an agent had not been determined, the highest concentration tested was 10 microM.
Cell Culture. All cells were maintained in an incubator at 37 degrees C and 5% CO2 with 95% humidity. The PDC lines were cultured according to standard operating procedures established by the NCI PDMR. All PDCs were thawed and cultured in Matrigel-coated flasks prepared with a working solution of 1X Ham's F-12 nutrient mix, without supplementation (Invitrogen, Waltham, MA, cat. 11765054), 100 U/mL penicillin-streptomycin (Invitrogen, cat. 15140122), and 2.5% Matrigel (Corning Inc., Corning, NY, cat. 354248) for the first three passages. The 362531-283-R-J2-PDC and 782815-120-R-J1-PDC lines were cultured in 6C/Colon 1B media, which includes advanced DMEM/F-12 (Thermo Fisher Scientific, cat. 12634028), 10 mM HEPES (Thermo Fisher Scientific, cat. 15630080), 1X GlutaMAX supplement (Thermo Fisher Scientific, cat. 35050061), 0.1 mg/mL primocin (InvivoGen, San Diego, CA, cat. ant-pm-2), 10% defined fetal bovine serum, heat inactivated (HyClone Laboratories Inc., Logan, UT, cat. SH30070.03HI), 50% L-WRN conditioned media (ATCC, cat. CRL-3276), 1.25 mM N-Acetyl-L-cysteine (Sigma-Aldrich, cat. A9165), 10 mM nicotinamide (Sigma-Aldrich, cat. N0636), 1X B-27 supplement (Thermo Fisher Scientific, cat. 17504044), 1X N-2 supplement (Thermo Fisher Scientific, cat. 17502048), 50 ng/mL human EGF (Thermo Fisher Scientific, cat. PHG0311), and 10 microM Y-27632 dihydrochloride (Tocris Bioscience, cat. 1254). The K12877-001-R-J1-PDC line was cultured in 6I media, which includes all 6C/Colon 1B media plus 10 ng/mL human FGF-10 (PeproTech, cat. 100-26), 1 ng/mL human FGF-2 (PeproTech, cat. 100-18B), 1 µM prostaglandin E2 (Tocris Bioscience, cat. 2296), […] hydrocortisone (Sigma-Aldrich, cat. H4001), and […] bovine insulin (Sigma-Aldrich, cat. I6634). The K86415-001-R-J1-PDC line was cultured in 6D media, which includes all 6C/Colon 1B media components minus the L-WRN conditioned media. The 485176-168-R4-J1-PDC was cultured in PANC media, which includes all 6C/Colon 1B media plus 100 ng/mL human FGF-10 (PeproTech, cat. 100-26), 500 nM SB-431542 (Selleckchem, cat. S1067), and 10 nM gastrin (Tocris Bioscience, cat. 3006). […]
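Further: spheroids exposed to agents for seven days before viability readout.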
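Wherever viability, T/C is given: 100% = DMSO vehicle control viability.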

CC(C)n1nc(-c2ccc3oc(N)nc3c2)c2c(N)ncnc21 + C=CC(=O)N1CCN(c2nc(OCC3CCCN3C)nc3c(F)c(-c4nc(N)cc(C)c4C(F)(F)F)c(Cl)cc23)C(C)C1
IC50 (second compound 0.00316 µM): > 100 nM
IC50 (second compound 0.01 µM): > 100 nM
IC50 (second compound 0.0316 µM): > 100 nM
IC50 (second compound 0.1 µM): > 100 nM
IC50 (second compound 0.316 µM): > 100 nM
IC50 (second compound 1 µM): > 100 nM
viability, T/C (second compound 0.00316 µM, first compound 0.000316 µM): 107%
viability, T/C (second compound 0.00316 µM, first compound 0.001 µM): 109%
viability, T/C (second compound 0.00316 µM, first compound 0.00316 µM): 99.9%
viability, T/C (second compound 0.00316 µM, first compound 0.01 µM): 119%
viability, T/C (second compound 0.00316 µM, first compound 0.0316 µM): 120%
viability, T/C (second compound 0.00316 µM, first compound 0.1 µM): 77.9%
viability, T/C (second compound 0.01 µM, first compound 0.000316 µM): 100%
viability, T/C (second compound 0.01 µM, first compound 0.001 µM): 111%
viability, T/C (second compound 0.01 µM, first compound 0.00316 µM): 107%
viability, T/C (second compound 0.01 µM, first compound 0.01 µM): 119%
viability, T/C (second compound 0.01 µM, first compound 0.0316 µM): 117%
viability, T/C (second compound 0.01 µM, first compound 0.1 µM): 70.7%
viability, T/C (second compound 0.0316 µM, first compound 0.000316 µM): 105%
viability, T/C (second compound 0.0316 µM, first compound 0.001 µM): 109%
viability, T/C (second compound 0.0316 µM, first compound 0.00316 µM): 113%
viability, T/C (second compound 0.0316 µM, first compound 0.01 µM): 111%
viability, T/C (second compound 0.0316 µM, first compound 0.0316 µM): 114%
viability, T/C (second compound 0.0316 µM, first compound 0.1 µM): 71.7%
viability, T/C (second compound 0.1 µM, first compound 0.000316 µM): 110%
viability, T/C (second compound 0.1 µM, first compound 0.001 µM): 100%
viability, T/C (second compound 0.1 µM, first compound 0.00316 µM): 111%
viability, T/C (second compound 0.1 µM, first compound 0.01 µM): 116%
viability, T/C (second compound 0.1 µM, first compound 0.0316 µM): 109%
viability, T/C (second compound 0.1 µM, first compound 0.1 µM): 72.2%
viability, T/C (second compound 0.316 µM, first compound 0.000316 µM): 109%
viability, T/C (second compound 0.316 µM, first compound 0.001 µM): 108%
viability, T/C (second compound 0.316 µM, first compound 0.00316 µM): 111%
viability, T/C (second compound 0.316 µM, first compound 0.01 µM): 109%
viability, T/C (second compound 0.316 µM, first compound 0.0316 µM): 129%
viability, T/C (second compound 0.316 µM, first compound 0.1 µM): 71.3%
viability, T/C (second compound 1 µM, first compound 0.000316 µM): 109%
viability, T/C (second compound 1 µM, first compound 0.001 µM): 99.6%
viability, T/C (second compound 1 µM, first compound 0.00316 µM): 118%
viability, T/C (second compound 1 µM, first compound 0.01 µM): 118%
viability, T/C (second compound 1 µM, first compound 0.0316 µM): 115%
viability, T/C (second compound 1 µM, first compound 0.1 µM): 70%
